Our source for the IC50 values is ChEMBL document CHEMBL1129295, “Studies of cardiotonic agents. 8. Synthesis and biological activities of optically active 6-(4-(benzylamino)-7-quinazolinyl)-4,5-dihydro-5-methyl-3(2H)- pyridazinone (KF15232)” (J Med Chem, 1996).

Some results are limits rather than exact numbers.

Phosphodiesterase 3B, sequence (E1BN64 whole entry): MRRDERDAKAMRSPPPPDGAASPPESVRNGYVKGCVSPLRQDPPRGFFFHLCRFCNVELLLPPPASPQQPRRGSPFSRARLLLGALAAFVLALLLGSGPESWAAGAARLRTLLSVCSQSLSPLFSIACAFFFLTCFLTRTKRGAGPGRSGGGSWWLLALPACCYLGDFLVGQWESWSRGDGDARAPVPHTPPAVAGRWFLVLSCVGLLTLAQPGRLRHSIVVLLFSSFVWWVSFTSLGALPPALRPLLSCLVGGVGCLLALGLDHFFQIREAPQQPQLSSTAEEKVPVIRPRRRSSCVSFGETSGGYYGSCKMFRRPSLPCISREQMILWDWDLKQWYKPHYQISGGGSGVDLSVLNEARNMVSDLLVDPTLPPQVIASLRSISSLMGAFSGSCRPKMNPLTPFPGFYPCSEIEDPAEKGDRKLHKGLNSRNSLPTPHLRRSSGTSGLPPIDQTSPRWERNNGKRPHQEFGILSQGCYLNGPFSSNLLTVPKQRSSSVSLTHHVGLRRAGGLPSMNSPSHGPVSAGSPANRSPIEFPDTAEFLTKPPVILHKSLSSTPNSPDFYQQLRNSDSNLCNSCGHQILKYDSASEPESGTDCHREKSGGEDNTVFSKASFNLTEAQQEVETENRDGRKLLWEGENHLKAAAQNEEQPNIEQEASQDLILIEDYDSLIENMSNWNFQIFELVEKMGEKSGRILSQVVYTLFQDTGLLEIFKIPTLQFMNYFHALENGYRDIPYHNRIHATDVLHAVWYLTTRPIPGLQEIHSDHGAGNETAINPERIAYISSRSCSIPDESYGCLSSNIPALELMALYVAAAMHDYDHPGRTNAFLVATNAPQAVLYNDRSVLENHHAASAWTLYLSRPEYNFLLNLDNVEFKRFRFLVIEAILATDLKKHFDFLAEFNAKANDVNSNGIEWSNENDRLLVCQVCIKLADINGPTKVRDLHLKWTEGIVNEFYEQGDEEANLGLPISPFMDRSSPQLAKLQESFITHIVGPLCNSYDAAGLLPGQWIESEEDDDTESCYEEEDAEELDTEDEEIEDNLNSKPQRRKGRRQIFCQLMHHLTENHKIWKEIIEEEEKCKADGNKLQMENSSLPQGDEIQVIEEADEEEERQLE

Target in the first assay: not listed separately
Description: Inhibition of bovine arterial Phosphodiesterase 4. Details: species or system Bos taurus.
Turning to `C[C@H]1CC(=O)NN=C1c1ccc2c(NCc3ccccc3)ncnc2c1`, the IC50 was greater than 10000 nM.
Still for that read-out and setting: to `C[C@@H]1CC(=O)NN=C1c1ccc2c(NCc3ccccc3)ncnc2c1` belongs greater than 10000 nM.
On to `CC1CC(=O)NN=C1c1ccc2c(NCc3ccccc3)ncnc2c1` (racemic), for which the IC50 is greater than 10000 nM.
The same measure, in the same setting: in the case of `Cc1[nH]c(=O)c(C#N)cc1-c1ccncc1` [MILRINONE] it was 10000 nM.
On the same count and under the same terms, to `COc1ccc(C2CNC(=O)C2)cc1OC1CCCC1` (configuration not stated) [ROLIPRAM] belongs 100 nM.

The next assay has as its target Phosphodiesterase 3B (Bos taurus, UniProt E1BN64). Description: Inhibition of bovine arterial Phosphodiesterase 3.
`Nc1nc2c(ncn2[C@@H]2O[C@@H]3COP(=O)(O)O[C@H]3[C@H]2O)c(=O)[nH]1` had an IC50 of 100 nM.
Same read-out and setting: in the case of `Cc1[nH]c(=O)c(C#N)cc1-c1ccncc1` [MILRINONE] it was 1000 nM.
